Values belong to the compound of their own block, whether it stands above or below them.
Experiments:
[1] = tested on: rat liver cytosol; test: Effect of inhibitors on chelerythrine iminium bond reduction to DHCHE by rat liver cytosol; assay type: in vitro ADME; settings: 100 μmol/L inhibitor, 0.25 mg/mL cytosol protein, 2 mM NADPH, 10 μg/mL chelerythrine, 15 min
Method: In brief, the incubation mixture consisted of 0.25 mg/mL cytosol protein, 5 mM MgCl2, 100 μmol/L inhibitor, and 2 mM NADPH in 0.05 M Tris-HCl buffer (pH 7.4). The inhibitors were dicoumarol (quinone oxidoreductase 1), quercetin (quinone oxidoreductase 2, carbonyl reductase), menadione (aldehyde oxidase, carbonyl reductase), and 7-hydroxycoumarin (xanthine oxidase). The reaction was preincubated at 37°C for 5 min. […] The incubation mixtures without the inhibitor or cytosol protein acted as the blank control. The reaction was stopped by adding 200 μL ice-cold acetonitrile after 15 min, and the mixture was vortexed and centrifuged at 12,000 g for 15 min. […] Phenomenex Co. USA). The mobile phase consisted of a 30/70 (v/v) mixture of solvent A (0.2% aqueous acetic acid solution) and solvent B (acetonitrile). The injection dose was 10 μl and the flow rate was 1 mL/min. The column temperature was set to 35°C and the detection wavelength was set to 285 nm. The DHCHE standard curve varied linearly in the concentration range from 0.050 to 10 μg/mL. […] The lower limit of quantification was 0.050 μg/mL.

[2] = Metabolite profile of sanguinarine in plasma, urine and feces of rats after intragastric M. cordata extracts; assay type: in vivo, rat
[3] = Metabolite profile of chelerythrine in plasma, urine and feces of rats after intragastric chelerythrine (HPLC/QqTOF-MS)
Method: Ten SD rats (160–180 g, five males and five females) were individually placed in stainless steel metabolic cages. […] Chelerythrine in water with the dissolving aid of Tween-80 was intragastrically administered to rats at a dose of 10 mg/kg. One milliliter whole blood samples were collected from retro orbital sinus with a heparinized blood collection tube at 3 h following drug dosing. Each collected blood sample was centrifuged at 3,000 rpm at 4°C for 10 min to obtain plasma samples. […] All samples were collected from female and male rats and stored at −70°C.
(§1) The preparations of plasma, urine, feces, and tissues were pretreatments according to our current study ([19]).
(§2) The injection volume was 5 μL.
Nitrogen was used as atomization gas, and the flow rate was 9 L/min. The parameters of the mass spectrometer were as follows: nozzle voltage 1 kv, capillary voltage 4.0 kv, sheath gas temperature 350°C, sheath gas flow rate 11 L/min, nebulizer voltage 35 psig. The quarantine window was set at 1 amu. The instrument automatically performed the internal mass calibration though the automated calibrate transfer system. […] All the data acquisition was controlled by Agilent Mass Hunter software (version B.01.03 Build 1.3.157.0 2), and the Agilent Mass Hunter software (Qualitative Analysis B.04.0) was used to accurately take mass measurements of each peak from the total ion chromatograms. Then, these metabolites were subjected to accurate EIC, and the acceptance or rejection was decided according to the peak appearing in the EIC. Structural elucidations of chelerythrine metabolites were carried out on the basis of the mass change from the metabolite or parent drug, the predicted elemental compositions, and the interpretation of accurate MS/MS spectra.

[4] = biological target: T1, NAD(P)H quinone oxidoreductase (NQO1) (Rattus norvegicus, UniProt P05982); test: In vitro inhibition of rat cytosolic NQO1 activity (DCPIP reduction); assay type: biochemical; settings: for NQO1 activities: compound 40.00 μM, control 67.14 ± 4.82; for NQO1 activities / Effect on NQO1 activity: rat liver cytosol; for Effect on NQO1 activity: in vitro
T1 construct: 50 μg/mL rat liver cytosol; from tissue; host or cells: rat liver cytosol
T1 sequence (P05982 2-274 limits assumed): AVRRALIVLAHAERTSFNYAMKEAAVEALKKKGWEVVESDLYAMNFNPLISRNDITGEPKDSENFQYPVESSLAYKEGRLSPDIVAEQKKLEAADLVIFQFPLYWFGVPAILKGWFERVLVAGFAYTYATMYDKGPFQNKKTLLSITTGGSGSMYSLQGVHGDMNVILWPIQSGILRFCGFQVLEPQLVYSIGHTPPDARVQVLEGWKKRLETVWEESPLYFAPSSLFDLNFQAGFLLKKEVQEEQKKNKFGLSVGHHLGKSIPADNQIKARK
Method: Any change in absorbance was monitored at 620 nm, and NQO1 activity was calculated by using the extinction coefficient for DCPIP (ε = 21 mM^−1cm^−1) and expressed as nanomles of DCPIP reduced per minute per milligram of protein.
The inhibitory effects of sanguinarine and chelerythrine were determined by the incubation of the reaction mixture with or without substrate. […] All of the incubations and sample preparations were carried out as described for the NQO1 assay above.

[5] = Tissue residues of sanguinarine and chelerythrine after 3 weeks of intragastric M. cordata extracts (HPLC-MS/MS)
Method: Tissue distribution was carried out in eighteen SD rats (160–180 g, nine males and nine females). Twelve rats (six male and six female) were intragastrically administered with M. cordata extracts at a single dosage of 5 mg/kg (containing about 2 mg/kg dose of sanguinarine and 1 mg/kg dose of chelerythrine) in water with the dissolving aid of Tween-80 for 3 weeks. Three male and three female rats were given the same amount of water as the blank control group by intragastric administration.
as §1
The controls of the operating parameters were as follows: capillary voltage, 3,500 V; EM voltage, 200 V; dry gas (N2) flow rate, 12 L/min; ion source temperature, 350°C; nebulizer, 25 psi.
The proposed method was validated by evaluation of specificity, accuracy, precision, LOD, and LOQ.

[6] = Chelerythrine/sanguinarine and metabolites in rat tissues after 3 weeks of intragastric M. cordata extracts (HPLC/QqTOF-MS); assay type: in vivo
Method: Tissue samples including cecal contents, lung, heart, liver, kidney, and spleen were collected at 24 and 48 h after the last administration and stored at −70°C.
as §2
The quarantine window was set at 1 amu.

[7] = set-up: method as in none printed; settings: no species, dose or reference given; cited from earlier work

SMILES: O=c1ccc2ccc(O)cc2o1 [7-hydroxycoumarin]
Effect on iminium bond reduction of chelerythrine (DHCHE formation) in rat liver cytosol [1]: could inhibit

SMILES: CC1=CC(=O)c2ccccc2C1=O [menadione]
Effect on iminium bond reduction of chelerythrine (DHCHE formation) in rat liver cytosol [1]: could inhibit

SMILES: O=c1c(O)c(-c2ccc(O)c(O)c2)oc2cc(O)cc(O)c12 [quercetin]
Effect on iminium bond reduction of chelerythrine (DHCHE formation) in rat liver cytosol [1]: could inhibit

SMILES: O=c1oc2ccccc2c(O)c1Cc1c(O)c2ccccc2oc1=O [Dicoumarol, dicoumarol]
Effect on iminium bond reduction of chelerythrine (DHCHE formation) in rat liver cytosol [1]: could inhibit

SMILES: CN1Cc2c(ccc3c2OCO3)-c2ccc3cc4c(cc3c21)OCO4 [Metabolite S1, dihydrosanguinarine]
Observed in rats in vivo (feces 0–24 h) ([2]; 5 mg/kg M. cordata extracts intragastric): observed

Found in feces ([3]; rat, in vivo): found
Observed in feces ([3]; rat, in vivo): observed
SMILES: COc1ccc2c(c1OC)CN(C)c1c-2ccc2cc3c(cc12)OCO3 [DHCHE, dihydrochelerythrine]

SMILES: C[n+]1cc2c3c(ccc2c2ccc4cc5c(cc4c21)OCO5)OCO3 [Sanguinarine]
NQO1 activities [4]: 45.08 ± 4.34 nanomolars of 2,6-dichlorophenolindophenol reduced per minute per milligram of protein
IC50 ([4]; rat liver cytosol 50 μg/mL, 40 μM DCPIP, 0.2 mM NADH, 0–40 μM compound): 112 ± 6.17 µM
Effect on NQO1 activity [4]: statistically significant decline
Observed in plasma at 3 h and urine of 0–24 h ([2]; rats, after intragastric M. cordata extracts): No parent drug or metabolites were observed
concentration at 24 h ([5]; both, SD, rat, in vivo, 5 mg/kg, Residue in heart, 24 h after last dose, M. cordata extracts 5 mg/kg intragastric for 3 weeks): 2.91 ng/g
concentration at 48 h ([5]; both, SD, rat, in vivo, 5 mg/kg, Residue in heart, 48 h after last dose, M. cordata extracts 5 mg/kg intragastric for 3 weeks): 2.57 ng/g
concentration at 24 h ([5]; both, SD, rat, in vivo, 5 mg/kg, Residue in kidney, 24 h after last dose, M. cordata extracts 5 mg/kg intragastric for 3 weeks): 3.77 ng/g
concentration at 48 h ([5]; both, SD, rat, in vivo, 5 mg/kg, Residue in kidney, 48 h after last dose, M. cordata extracts 5 mg/kg intragastric for 3 weeks): 5.65 ng/g
concentration at 24 h ([5]; both, SD, rat, in vivo, 5 mg/kg, Residue in liver, 24 h after last dose, M. cordata extracts 5 mg/kg intragastric for 3 weeks): 10.4 ng/g
concentration at 48 h ([5]; both, SD, rat, in vivo, 5 mg/kg, Residue in liver, 48 h after last dose, M. cordata extracts 5 mg/kg intragastric for 3 weeks): 9.8 ng/g
concentration at 24 h ([5]; both, SD, rat, in vivo, 5 mg/kg, Residue in lung, 24 h after last dose, M. cordata extracts 5 mg/kg intragastric for 3 weeks): 2.29 ng/g
concentration at 48 h ([5]; both, SD, rat, in vivo, 5 mg/kg, Residue in lung, 48 h after last dose, M. cordata extracts 5 mg/kg intragastric for 3 weeks): 2.01 ng/g
concentration at 24 h ([5]; both, SD, rat, in vivo, 5 mg/kg, Residue in spleen, 24 h after last dose, M. cordata extracts 5 mg/kg intragastric for 3 weeks): 2.01 ng/g
concentration at 48 h ([5]; both, SD, rat, in vivo, 5 mg/kg, Residue in spleen, 48 h after last dose, M. cordata extracts 5 mg/kg intragastric for 3 weeks): 1.91 ng/g
Concentrations in other tissues ([5]; tissues other than chelerythrine in liver 48 h and spleen 24 h): < 11 ng/g
Found in spleen, lung, kidney, liver or heart by HPLC/QqTOF-MS [6]: no sanguinarine and chelerythrine or their metabolites were found

SMILES: COc1ccc2c(c[n+](C)c3c4cc5c(cc4ccc23)OCO5)c1OC [Chelerythrine]
NQO1 activities [4]: 64.90 ± 4.24 nanomolars of 2,6-dichlorophenolindophenol reduced per minute per milligram of protein
Effect on NQO1 activity [4]: weak impact
Cmax [7]: 5.06 ng/mL
T1/2 [7]: 2.82 h
Tmax [7]: 1.67 h
Detection in plasma ([3]; male and female rats, three hours after intragastric chelerythrine): no parent drug and metabolites were detected
Concentrations in (others) tissues ([5]; both, SD, rat, in vivo): < 15 ng/g
concentration at 24 h ([5]; both, SD, rat, in vivo, Concentration in spleen): 44 ng/mL
concentration at 48 h ([5]; both, SD, rat, in vivo, Concentration in the liver): 20.6 ng/mL
Found in spleen, lung, kidney, liver or heart by HPLC/QqTOF-MS [6]: no sanguinarine and chelerythrine or their metabolites were found

— article PMC8187775, “Metabolism and Tissue Distribution of Chelerythrine and Effects of Macleaya Cordata Extracts on Liver NAD(P)H Quinone Oxidoreductase” (Frontiers in Veterinary Science, 2021)
